Holding throughout (type): functional
The subject of test [1] is Kluyveromyces marxianus. The test is described as follows: In vitro Minimum inhibitory concentration (MIC) for antifungal activity against Candida pseudotropicalis 2371.
The subject of test [2] is Candida tropicalis. The test is described as follows: In vitro Minimum inhibitory concentration (MIC) for antifungal activity against Candida tropicalis 2808.
Test [3] deals with Cryptococcus neoformans. The test is described as follows: In vitro Minimum inhibitory concentration (MIC) for antifungal activity against Cryptococcus neoformans 2867.
Test [4] deals with Candida albicans. Put plainly: In vitro Minimum inhibitory concentration (MIC) for antifungal activity against Candida albicans 2005.
The test system of test [5] is Candida albicans. The test is described as follows: In vitro Minimum inhibitory concentration (MIC) for antifungal activity against Candida albicans 1208.
Test [6] deals with Candida albicans. The test is described as follows: In vitro Minimum inhibitory concentration (MIC) for antifungal activity against Candida albicans 2402.
For test [7], the system named is Candida albicans. The test is described as follows: In vitro Minimum inhibitory concentration (MIC) for antifungal activity against Candida albicans 2005E.
The subject of test [8] is Kluyveromyces marxianus. Put plainly: In vitro Minimum inhibitory concentration (MIC) for antifungal activity against Candida pseudotropicalis 2371E.
Test [9] deals with Candida albicans. Put plainly: In vitro Minimum inhibitory concentration (MIC) for antifungal activity against Candida albicans 2402E.
For test [10], the system named is Candida tropicalis. Put plainly: In vitro Minimum inhibitory concentration (MIC) for antifungal activity against Candida tropicalis 2808E.
In test [11] the test system is Candida albicans. The test is described as follows: In vitro Minimum inhibitory concentration (MIC) for antifungal activity against Candida albicans 1208E.
The test system of test [12] is Cryptococcus neoformans. Put plainly: In vitro Minimum inhibitory concentration (MIC) for antifungal activity against Cryptococcus neoformans 2867E.

≈ marks a conversion by molar mass, not a printed value. Where only a bound is given, the exact number is not on record here.

On to `CCCCCCCCNC(=O)O[C@H]1C(O)[C@H](OCC23C[C@@H]4[C@H](C)CC[C@H]4C4(C=O)CC2C=C(C(C)C)C34C(=O)O)O[C@H](C)[C@H]1OC` (some centres undefined), for which the minimal inhibitory concentration (MIC) in test [1] stood at 1 µg/mL (≈ 1.54 µM); in [2], 2 µg/mL (≈ 3.09 µM); in [3], 31 µg/mL (≈ 47.9 µM); in [4], 0.06 µg/mL (≈ 0.0926 µM); in [5] it was 4 µg/mL (≈ 6.17 µM); in [6], 2 µg/mL (≈ 3.09 µM).
Turning to `CO[C@H]1[C@@H](OC(=O)OCc2ccccc2)[C@H](OC(=O)OCc2ccccc2)[C@H](OCC23C[C@@H]4[C@H](C)CC[C@H]4C4(C=O)CC2C=C(C(C)C)C34C(=O)O)O[C@@H]1C` (some centres undefined), the MIC in [7] is 62 µg/mL (≈ 81.5 µM); in test [8] it was more than 62 µg/mL; in test [9] it was more than 62 µg/mL; in [10], more than 62 µg/mL; in test [11], more than 62 µg/mL; in test [12], more than 62 µg/mL.
Turning to `CCCCCCCCOC(=O)O[C@H]1C(O)[C@H](OCC23C[C@@H]4[C@H](C)CC[C@H]4C4(C=O)CC2C=C(C(C)C)C34C(=O)O)O[C@H](C)[C@H]1OC` (some centres undefined), the minimum inhibitory concentration (MIC) was 0.12 µg/mL (≈ 0.185 µM) in [1]; 8 µg/mL (≈ 12.3 µM) in [2]; 8 µg/mL (≈ 12.3 µM) in test [3]; 0.25 µg/mL (≈ 0.385 µM) in test [4]; 1 µg/mL (≈ 1.54 µM) in [5]; 0.5 µg/mL (≈ 0.771 µM) in test [6].
In the case of `CCCCCC(=O)O[C@H]1[C@H](OC(=O)CCCCC)[C@H](OCC23C[C@@H]4[C@H](C)CC[C@H]4C4(C=O)CC2C=C(C(C)C)C34C(=O)O)O[C@H](C)[C@H]1OC` (some centres undefined), the minimum inhibitory concentration (MIC) in test [7] is 4 µg/mL (≈ 5.81 µM); in test [8], more than 125 µg/mL; in [9], 8 µg/mL (≈ 11.6 µM); in test [10], more than 125 µg/mL; in test [11] it was 8 µg/mL (≈ 11.6 µM); in test [12] it was more than 125 µg/mL.
`C/C=C/C=C(\C)C(=O)O[C@H]1C(O)[C@H](OCC23C[C@@H]4[C@H](C)CC[C@H]4C4(C=O)CC2C=C(C(C)C)C34C(=O)O)O[C@H](C)[C@H]1OC` (some centres undefined): the minimum inhibitory concentration (MIC) worked out at 0.03 µg/mL (≈ 0.0499 µM) in [1]; 0.06 µg/mL (≈ 0.0999 µM) in test [2]; 0.25 µg/mL (≈ 0.416 µM) in [3]; 0.015 µg/mL (≈ 0.025 µM) in [4]; 0.25 µg/mL (≈ 0.416 µM) in test [5]; 0.03 µg/mL (≈ 0.0499 µM) in test [6].
As for `CCC/C=C(\C)C(=O)O[C@H]1C(O)[C@H](OCC23C[C@@H]4[C@H](C)CC[C@H]4C4(C=O)CC2C=C(C(C)C)C34C(=O)O)O[C@H](C)[C@H]1OC` (some centres undefined), the minimum inhibitory concentration (MIC) in [1] came to 0.12 µg/mL (≈ 0.199 µM); in test [2] it was 0.5 µg/mL (≈ 0.83 µM); in [3], 62 µg/mL (≈ 103 µM); in test [4], 0.015 µg/mL (≈ 0.0249 µM); in test [5], 1 µg/mL (≈ 1.66 µM); in [6] it was 0.5 µg/mL (≈ 0.83 µM).
In the case of `CO[C@@H]1[C@@H](C)O[C@@H](OCC23C[C@@H]4[C@H](C)CC[C@H]4C4(C=O)CC2C=C(C(C)C)C34C(=O)O)C(O)[C@@H]1OC(=O)OCc1ccccc1` (some centres undefined), the minimal inhibitory concentration (MIC) was 2 µg/mL (≈ 3.19 µM) in test [1]; 8 µg/mL (≈ 12.8 µM) in test [2]; more than 62 µg/mL in [3]; 2 µg/mL (≈ 3.19 µM) in [4]; 8 µg/mL (≈ 12.8 µM) in test [5]; 8 µg/mL (≈ 12.8 µM) in test [6].
Regarding `CCCCC(C)C(=O)OC1C(O)[C@H](OCC23C[C@@H]4[C@H](C)CC[C@H]4C4(C=O)CC2C=C(C(C)C)C34C(=O)O)O[C@H](C)[C@H]1OC` (single isomer, unassigned), the MIC in test [1] is 0.06 µg/mL (≈ 0.0992 µM); in [2], 0.25 µg/mL (≈ 0.413 µM); in test [3] it was 8 µg/mL (≈ 13.2 µM); in test [4] it was 0.008 µg/mL (≈ 0.0132 µM); in test [5] it was 0.12 µg/mL (≈ 0.198 µM); in test [6], 0.06 µg/mL (≈ 0.0992 µM).
Consider `CO[C@H]1C(OC(=O)CCCCCl)C(O)[C@H](OCC23C[C@@H]4[C@H](C)CC[C@H]4C4(C=O)CC2C=C(C(C)C)C34C(=O)O)O[C@@H]1C` (single isomer, unassigned), for which the minimal inhibitory concentration (MIC) came to 0.25 µg/mL (≈ 0.409 µM) in test [1]; 1 µg/mL (≈ 1.64 µM) in test [2]; 16 µg/mL (≈ 26.2 µM) in test [3]; 0.12 µg/mL (≈ 0.196 µM) in test [4]; 2 µg/mL (≈ 3.27 µM) in test [5]; 2 µg/mL (≈ 3.27 µM) in test [6].
As to `CO[C@H]1C(OC(=O)c2ccco2)C(O)[C@H](OCC23C[C@@H]4[C@H](C)CC[C@H]4C4(C=O)CC2C=C(C(C)C)C34C(=O)O)O[C@@H]1C` (single isomer, unassigned), the MIC in [1] is 4 µg/mL (≈ 6.82 µM); in [2], 8 µg/mL (≈ 13.6 µM); in test [3], more than 125 µg/mL; in test [4], 2 µg/mL (≈ 3.41 µM); in [5], 16 µg/mL (≈ 27.3 µM); in [6] it was 16 µg/mL (≈ 27.3 µM).
Regarding `COCC(=O)OC1C(O)[C@H](OCC23C[C@@H]4[C@H](C)CC[C@H]4C4(C=O)CC2C=C(C(C)C)C34C(=O)O)O[C@H](C)[C@H]1OC` (single isomer, unassigned), the minimum inhibitory concentration (MIC) was 16 µg/mL (≈ 28.3 µM) in test [1]; more than 125 µg/mL in [2]; 125 µg/mL (≈ 221 µM) in test [3]; 62 µg/mL (≈ 110 µM) in [4]; more than 125 µg/mL in [5]; 125 µg/mL (≈ 221 µM) in [6].
Take `CCCCCC(=O)OC1C(O)[C@H](OCC23C[C@@H]4[C@H](C)CC[C@H]4C4(C=O)CC2C=C(C(C)C)C34C(=O)O)O[C@H](C)[C@H]1OC` (single isomer, unassigned): the MIC in test [1] came out at 0.01 µg/mL (≈ 0.0169 µM); in [2] it was 0.03 µg/mL (≈ 0.0508 µM); in [3] it was 16 µg/mL (≈ 27.1 µM); in test [4] it was 0.015 µg/mL (≈ 0.0254 µM); in [5], 0.25 µg/mL (≈ 0.423 µM); in test [6] it was 0.25 µg/mL (≈ 0.423 µM).
Turning to `CCCCCCCCCC(=O)OC1C(O)[C@H](OCC23C[C@@H]4[C@H](C)CC[C@H]4C4(C=O)CC2C=C(C(C)C)C34C(=O)O)O[C@H](C)[C@H]1OC` (single isomer, unassigned), the MIC in test [1] came to 0.25 µg/mL (≈ 0.386 µM); in test [2], 8 µg/mL (≈ 12.4 µM); in test [3] it was 1 µg/mL (≈ 1.55 µM); in [4], 0.25 µg/mL (≈ 0.386 µM); in test [5] it was 1 µg/mL (≈ 1.55 µM); in [6] it was 1 µg/mL (≈ 1.55 µM).
Turning to `CO[C@H]1C(OC(=O)c2ccccc2)C(O)[C@H](OCC23C[C@@H]4[C@H](C)CC[C@H]4C4(C=O)CC2C=C(C(C)C)C34C(=O)O)O[C@@H]1C` (single isomer, unassigned), the MIC in test [1] was 0.25 µg/mL (≈ 0.419 µM); in test [2] it was 0.5 µg/mL (≈ 0.838 µM); in [3], more than 125 µg/mL; in test [4], 0.12 µg/mL (≈ 0.201 µM); in test [5], 1 µg/mL (≈ 1.68 µM); in [6] it was 1 µg/mL (≈ 1.68 µM).
Take `CCCCCCOC1[C@H](O)[C@H](OCC23C[C@@H]4[C@H](C)CC[C@H]4C4(C=O)CC2C=C(C(C)C)C34C(=O)O)O[C@H](C)[C@H]1OC` (single isomer, unassigned): the MIC in test [7] came out at 0.25 µg/mL (≈ 0.433 µM); in test [8] it was 0.25 µg/mL (≈ 0.433 µM); in test [9], 2 µg/mL (≈ 3.47 µM); in test [10], 1 µg/mL (≈ 1.73 µM); in test [11], 4 µg/mL (≈ 6.94 µM); in test [12], 31 µg/mL (≈ 53.7 µM).
On to `CCCCCCCC(=O)OC1C(O)[C@H](OCC23C[C@@H]4[C@H](C)CC[C@H]4C4(C=O)CC2C=C(C(C)C)C34C(=O)O)O[C@H](C)[C@H]1OC` (single isomer, unassigned), for which the minimum inhibitory concentration (MIC) in test [1] is 0.004 µg/mL (≈ 0.00646 µM); in test [2], 0.06 µg/mL (≈ 0.097 µM); in test [3] it was 0.25 µg/mL (≈ 0.404 µM); in [4], less than 0.001 µg/mL; in [5] it was 0.06 µg/mL (≈ 0.097 µM); in test [6], 0.03 µg/mL (≈ 0.0485 µM).
For the compound `COC1C(O)C(O)[C@H](OCC23C[C@@H]4[C@H](C)CC[C@H]4C4(C=O)CC2C=C(C(C)C)C34C(=O)O)O[C@@H]1C` (single isomer, unassigned), the minimal inhibitory concentration (MIC) was 16 µg/mL (≈ 32.5 µM) in test [1]; 16 µg/mL (≈ 32.5 µM) in test [2]; more than 125 µg/mL in [3]; 8 µg/mL (≈ 16.2 µM) in test [4]; 31 µg/mL (≈ 62.9 µM) in [5]; 31 µg/mL (≈ 62.9 µM) in test [6].
Turning to `CCCC(=O)OC1C(O)[C@H](OCC23C[C@@H]4[C@H](C)CC[C@H]4C4(C=O)CC2C=C(C(C)C)C34C(=O)O)O[C@H](C)[C@H]1OC` (single isomer, unassigned), the MIC in test [1] is 0.5 µg/mL (≈ 0.889 µM); in test [2], 2 µg/mL (≈ 3.55 µM); in test [3], more than 125 µg/mL; in [4], 0.25 µg/mL (≈ 0.444 µM); in test [5], 1 µg/mL (≈ 1.78 µM); in [6], 2 µg/mL (≈ 3.55 µM).
As for `CCCCCC(=O)O[C@@H]1[C@H](OCC23C[C@@H]4[C@H](C)CC[C@H]4C4(C=O)CC2C=C(C(C)C)C34C(=O)O)O[C@H](C)C(OC)[C@H]1O` (single isomer, unassigned), the MIC was 8 µg/mL (≈ 13.5 µM) in test [7]; 31 µg/mL (≈ 52.5 µM) in test [8]; 31 µg/mL (≈ 52.5 µM) in [9]; 62 µg/mL (≈ 105 µM) in test [10]; 31 µg/mL (≈ 52.5 µM) in [11]; 31 µg/mL (≈ 52.5 µM) in test [12].

The values are drawn from ChEMBL document CHEMBL1135358, “Antifungal sordarins. Synthesis and structure-activity relationships of 3'-O-substituted derivatives” (2002).
